From patent publication US11028315B2, “Zwitterionic surfactants suitable for enhanced oil recovery” (RHODIA OPERATIONS, priority 2016, dated 2021)
“And” between values parts separate entries of the source, which are not always exact repeats. Equal entries are not always repeated.

Experiments:
Assay type in all cases: physicochemical
[1] = Phase behavior: optimal wt. % of co-surfactant leading to Will phase behavior in presence of crude oil
Description: (§1) 2.1 In the following examples, the performances of surfactants formulations containing the betaine of example 1.3.1 in a brine solution at 50 g/L NaCl were compared.
(§2) The total surfactant concentration was set at 8 g/L and the formulation variable was the wt. % of the more hydrophilic zwitterionic surfactant (considered as co-surfactant) in the surfactant blend.
(§3) The wt. % of the more hydrophilic zwitterionic leading to a Will phase behavior (optimal wt %. of co-surfactant), was determined in presence of crude oil at 40° C. and reported in Table 1. The solubility of surfactant blends was also analyzed.

[2] = Solubility of surfactant blends (absorbance)
Description: as §1, §2, §3
2.2. In terms of interfacial tension, all the blends studied led to ultra-low values (<10^−2 mN/m). On the other hand, only the hydrophilic amido betaine derived from a branched C12 acid (ADBB12) allows obtaining a homogeneous but opalescent water solution (absorbance of 0.46) at the optimal formulation (71 wt. %).

[3] = Interfacial tension with crude oil by spinning drop methods; details: mixture of ADBB12 and the betaine from C23 ketones derived diamine at the optimal wt. %
Description: All the linear alkyl betaines, solutions separate in two phases or forms really turbid solutions (0.86 absorbance). Interfacial tension with crude oil of the mixture ADBB12 and the betaine from C23 ketones derived diamine at the optimal wt. % was evaluated by spinning drop methods. The ultra-low interfacial tension was confirmed (=10^−3 mN/m).

[4] = Interfacial tension calculated from solubility ratios at the equilibrium phase behavior
Description: as §3

- Optimal % co-surfactant ([1]; blend with betaine of example 1.3.1, brine 50 g/L NaCl, total surfactant 8 g/L, crude oil, 40° C., wt. % of co-surfactant in the blend): 71%
- Optimal % co-surfactant ([1]; blend with sulfobetaine from C23 ketone derived diamine, same conditions as the betaines (50 g/L NaCl, 8 g/L, crude oil, 40° C.)): 64%
- Absorbance ([2]; blend with betaine of example 1.3.1 at optimal wt. % co-surfactant, brine 50 g/L NaCl, total surfactant 8 g/L): 0.46 and 0.45
- Absorbance ([2]; blend with sulfobetaine from C23 ketone derived diamine at optimal wt. % co-surfactant): 0.84
- Interfacial tension with crude oil [3]: 10^−3 mN/m
- γw (interfacial tension) ([4]; blend with betaine of example 1.3.1 at optimal wt. %, brine 50 g/L NaCl, 8 g/L, crude oil, 40° C.): 3,4 mN/m · 10^3
- γw (interfacial tension) ([4]; blend with sulfobetaine from C23 ketone derived diamine at optimal wt. %): 3.3 mN/m · 10^3
SMILES: CCCCCCC(CCCC)C(=O)NCCC[N+](C)(C)CC(=O)[O-] (stereo not shown) [ADBB12]
